# Measured values published in ChEMBL document CHEMBL5236574, “Identification of a new and diverse set of Mycobacterium tuberculosis uracil-DNA glycosylase (MtUng) inhibitors using structure-based virtual screening: Experimental validation and molecular dynamics studies” (Bioorg Med Chem Lett, 2022).
# pIC50: −log10 of the molar value.
# Biological target: not listed separately
# Test: Inhibition of Mycobacterium tuberculosis uracil-DNA glycosylase by fluorescence based assay
row,Structure (SMILES),pIC50
1,CCC(C)(C)C(=O)O[C@H]1C[C@@H](C)C=C2C=C[C@H](C)[C@H](CC[C@@H]3C[C@@H](O)CC(=O)O3)[C@H]21 [SIMVASTATIN],2.98
2,Cc1ccc(CCOc2ccc(C[C@@H]3SC(=O)NC3=O)cc2)nc1,2.05
3,CC(C)c1ccc(OCC(=O)Nc2c[nH]c(=O)[nH]c2=O)cc1,2.12
4,CC(C)(C)[C@H](COc1ccccc1F)NC(=O)c1nc(=O)[nH][nH]1,1.95
5,O=c1cc(Nc2ccc(N3CCCCC3)cc2)[nH]c(=O)[nH]1,3.10
6,CC(=O)N(CC(O)CO)c1c(I)c(C(=O)NCC(O)CO)c(I)c(C(=O)NCC(O)CO)c1I (stereo not given) [IOHEXOL],3.22
7,Cc1ccc(-c2csc3c(=O)n(CC#N)cnc23)cc1,2.10
8,COc1ccc(C(=O)Nc2c[nH]c(=O)[nH]c2=O)cc1[N+](=O)[O-],1.82
9,O=C1CN(/N=C/c2ccc([N+](=O)[O-])o2)C(=O)N1 [NITROFURANTOIN],3.01
10,O=C(NCc1nc2ccc(Cl)cc2[nH]1)c1c[nH]c(=O)[nH]c1=O,2.19
11,Cc1[nH]c(=O)[nH]c(=O)c1CC(=O)N(Cc1ccc2c(c1)OCO2)Cc1ccccc1F,3.85
12,O=C(Nc1c[nH]c(=O)[nH]c1=O)c1cccc(N2C(=O)CCC2=O)c1,2.67
13,CC(C)(Cc1cccc(Cl)c1)C(=O)NCCc1n[nH]c(=O)[nH]1,2.39

# Test system: not listed separately
# Test: Inhibition of Mycobacterium tuberculosis uracil-DNA glycosylase expressed in Escherichia coli BL21 (DE3) rosetta cells incubated for 10 sec under shaking condition and measured every 2 mins for 40 mins by fluorescence based assay
row,Structure (SMILES),pIC50
1,O=c1cc[nH]c(=O)[nH]1 [URACIL],2.69

# Test system: Mycobacterium tuberculosis
# Test: Potency index, ratio of uracil IC50 to test compound IC50 for inhibition of Mycobacterium tuberculosis uracil-DNA glycosylase
row,Structure (SMILES),Ratio IC50
1,Cc1[nH]c(=O)[nH]c(=O)c1CC(=O)N(Cc1ccc2c(c1)OCO2)Cc1ccccc1F,15
